What was measured:
[1] = target: T1, Alpha-1A adrenergic receptor (Homo sapiens, UniProt P35348); type: functional, cell-based
T1 sequence (P35348 whole entry): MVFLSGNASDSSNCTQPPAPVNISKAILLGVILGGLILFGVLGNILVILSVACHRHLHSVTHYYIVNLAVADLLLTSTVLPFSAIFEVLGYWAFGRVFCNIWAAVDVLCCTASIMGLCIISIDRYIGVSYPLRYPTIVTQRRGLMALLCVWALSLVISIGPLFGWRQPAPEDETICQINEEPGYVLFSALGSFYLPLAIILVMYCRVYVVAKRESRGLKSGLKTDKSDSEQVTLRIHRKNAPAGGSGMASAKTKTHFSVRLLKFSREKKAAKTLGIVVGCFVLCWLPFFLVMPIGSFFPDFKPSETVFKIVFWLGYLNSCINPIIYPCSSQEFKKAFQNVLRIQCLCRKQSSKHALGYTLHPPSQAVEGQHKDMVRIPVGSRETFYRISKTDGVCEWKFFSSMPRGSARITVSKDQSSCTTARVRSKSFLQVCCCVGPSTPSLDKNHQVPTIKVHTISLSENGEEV

[2] = target: T2, Alpha-2A adrenergic receptor (Homo sapiens, UniProt P08913)
T2 sequence (P08913 whole entry): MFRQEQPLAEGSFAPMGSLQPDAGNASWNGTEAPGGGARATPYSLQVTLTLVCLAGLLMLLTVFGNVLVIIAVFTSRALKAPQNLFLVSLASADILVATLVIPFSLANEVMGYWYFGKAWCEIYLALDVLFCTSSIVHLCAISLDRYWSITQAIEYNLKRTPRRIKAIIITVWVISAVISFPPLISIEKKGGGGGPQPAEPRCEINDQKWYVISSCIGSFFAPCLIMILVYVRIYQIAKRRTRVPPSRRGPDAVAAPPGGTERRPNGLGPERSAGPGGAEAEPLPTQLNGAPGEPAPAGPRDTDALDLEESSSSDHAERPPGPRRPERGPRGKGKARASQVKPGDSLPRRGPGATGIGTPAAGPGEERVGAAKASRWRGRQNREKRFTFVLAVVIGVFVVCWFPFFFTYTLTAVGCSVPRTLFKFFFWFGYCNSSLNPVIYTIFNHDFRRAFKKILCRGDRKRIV

D(1A) dopamine receptor = D(1A) dopamine receptor (Homo sapiens, UniProt P21728)
[3] = target: Gamma-aminobutyric acid receptor subunit alpha-1/alpha-2/beta-2/gamma-2 (Homo sapiens, UniProt P14867+P18507+P47869+P47870); type: protein-complex assay
Histamine H3 receptor = Histamine H3 receptor (Homo sapiens, UniProt Q9Y5N1)
[4] = target: Gamma-aminobutyric acid receptor subunit alpha-1 (Rattus norvegicus, UniProt P62813)
[5] = target: T3, Muscarinic acetylcholine receptor M1 (Homo sapiens, UniProt P11229); type: functional, cell-based
T3 sequence (P11229 whole entry): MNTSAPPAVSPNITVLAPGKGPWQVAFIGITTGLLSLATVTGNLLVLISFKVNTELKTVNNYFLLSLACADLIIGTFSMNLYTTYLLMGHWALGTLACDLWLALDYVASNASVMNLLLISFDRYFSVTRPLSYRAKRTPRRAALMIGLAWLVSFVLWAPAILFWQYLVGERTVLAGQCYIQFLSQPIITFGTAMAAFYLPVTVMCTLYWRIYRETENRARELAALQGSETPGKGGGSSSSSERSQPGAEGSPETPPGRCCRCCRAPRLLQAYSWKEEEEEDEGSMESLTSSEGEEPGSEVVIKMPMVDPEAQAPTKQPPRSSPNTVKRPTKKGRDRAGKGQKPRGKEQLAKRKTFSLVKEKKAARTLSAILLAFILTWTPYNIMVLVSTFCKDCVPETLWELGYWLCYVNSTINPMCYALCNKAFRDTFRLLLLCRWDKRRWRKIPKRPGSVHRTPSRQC

[6] = target: T3, Muscarinic acetylcholine receptor M1; type: functional, cell-based; remark: listed apart in the source
Further: assay procedure not described here.

Chain of Histamine H3 receptor (Q9Y5N1 whole entry): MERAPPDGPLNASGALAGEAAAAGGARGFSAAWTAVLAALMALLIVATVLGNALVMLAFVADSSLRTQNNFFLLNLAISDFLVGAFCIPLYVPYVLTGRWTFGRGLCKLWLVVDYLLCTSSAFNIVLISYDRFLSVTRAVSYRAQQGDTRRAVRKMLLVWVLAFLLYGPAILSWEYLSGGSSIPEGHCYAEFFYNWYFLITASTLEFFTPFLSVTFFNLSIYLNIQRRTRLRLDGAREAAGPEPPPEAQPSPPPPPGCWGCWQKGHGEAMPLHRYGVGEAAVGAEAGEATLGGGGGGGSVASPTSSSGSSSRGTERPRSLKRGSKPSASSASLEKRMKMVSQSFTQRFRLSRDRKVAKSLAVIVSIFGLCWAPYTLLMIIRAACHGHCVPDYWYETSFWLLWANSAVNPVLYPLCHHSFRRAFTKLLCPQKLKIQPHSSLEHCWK
Chain of Gamma-aminobutyric acid receptor subunit alpha-1 (P62813 whole entry): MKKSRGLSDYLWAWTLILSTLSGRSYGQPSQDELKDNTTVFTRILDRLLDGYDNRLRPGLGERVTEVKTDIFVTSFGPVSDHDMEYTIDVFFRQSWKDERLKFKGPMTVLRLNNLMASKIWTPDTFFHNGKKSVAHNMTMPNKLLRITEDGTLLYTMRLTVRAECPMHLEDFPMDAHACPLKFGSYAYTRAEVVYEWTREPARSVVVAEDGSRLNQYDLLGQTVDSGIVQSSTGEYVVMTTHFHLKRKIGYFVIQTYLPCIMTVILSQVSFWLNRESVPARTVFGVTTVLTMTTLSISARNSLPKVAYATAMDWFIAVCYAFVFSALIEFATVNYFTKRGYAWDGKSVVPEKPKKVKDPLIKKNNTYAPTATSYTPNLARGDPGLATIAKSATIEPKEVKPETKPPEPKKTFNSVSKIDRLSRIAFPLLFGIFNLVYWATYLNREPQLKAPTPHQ
Chain of D(1A) dopamine receptor (P21728 whole entry): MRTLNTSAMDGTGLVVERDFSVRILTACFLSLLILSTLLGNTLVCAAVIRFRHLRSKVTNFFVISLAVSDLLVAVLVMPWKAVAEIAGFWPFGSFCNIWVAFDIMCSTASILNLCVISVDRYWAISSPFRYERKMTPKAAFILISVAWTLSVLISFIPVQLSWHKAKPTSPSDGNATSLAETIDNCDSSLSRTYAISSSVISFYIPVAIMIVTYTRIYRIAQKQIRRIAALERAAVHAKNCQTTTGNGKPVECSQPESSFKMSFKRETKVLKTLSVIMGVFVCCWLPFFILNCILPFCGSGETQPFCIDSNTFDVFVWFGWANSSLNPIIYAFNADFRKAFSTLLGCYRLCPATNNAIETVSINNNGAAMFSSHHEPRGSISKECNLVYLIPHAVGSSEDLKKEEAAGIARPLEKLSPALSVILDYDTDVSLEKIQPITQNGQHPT
Chain of Gamma-aminobutyric acid receptor subunit alpha-1/alpha-2/beta-2/gamma-2 (P14867 whole entry): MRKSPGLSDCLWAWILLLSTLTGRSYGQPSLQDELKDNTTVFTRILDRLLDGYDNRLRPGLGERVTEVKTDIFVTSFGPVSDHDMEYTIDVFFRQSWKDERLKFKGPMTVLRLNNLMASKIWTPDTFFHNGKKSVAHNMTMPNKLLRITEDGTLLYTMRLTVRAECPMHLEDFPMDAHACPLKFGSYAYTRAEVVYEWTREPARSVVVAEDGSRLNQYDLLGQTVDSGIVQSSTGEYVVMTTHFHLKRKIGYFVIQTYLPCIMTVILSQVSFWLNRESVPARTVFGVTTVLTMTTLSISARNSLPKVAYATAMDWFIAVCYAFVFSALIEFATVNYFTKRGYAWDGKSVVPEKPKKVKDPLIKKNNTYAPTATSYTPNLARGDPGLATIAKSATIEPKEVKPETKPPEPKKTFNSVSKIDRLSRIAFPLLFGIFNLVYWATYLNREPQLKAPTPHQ
Chain of Gamma-aminobutyric acid receptor subunit alpha-1/alpha-2/beta-2/gamma-2 (P47870 whole entry): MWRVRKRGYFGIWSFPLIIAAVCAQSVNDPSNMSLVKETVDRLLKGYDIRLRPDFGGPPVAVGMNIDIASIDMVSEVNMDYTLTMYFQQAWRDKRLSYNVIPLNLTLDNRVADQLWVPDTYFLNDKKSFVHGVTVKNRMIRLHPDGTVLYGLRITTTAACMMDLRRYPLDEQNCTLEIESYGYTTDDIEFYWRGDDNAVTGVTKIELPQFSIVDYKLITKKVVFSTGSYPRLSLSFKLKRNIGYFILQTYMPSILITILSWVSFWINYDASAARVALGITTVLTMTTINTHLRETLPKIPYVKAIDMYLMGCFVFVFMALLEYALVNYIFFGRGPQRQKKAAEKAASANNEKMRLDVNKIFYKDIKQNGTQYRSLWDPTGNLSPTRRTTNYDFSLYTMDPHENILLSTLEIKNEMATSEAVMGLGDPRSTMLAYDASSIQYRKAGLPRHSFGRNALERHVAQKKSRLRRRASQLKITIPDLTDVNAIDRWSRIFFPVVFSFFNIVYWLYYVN
Chain of Gamma-aminobutyric acid receptor subunit alpha-1/alpha-2/beta-2/gamma-2 (P18507 whole entry): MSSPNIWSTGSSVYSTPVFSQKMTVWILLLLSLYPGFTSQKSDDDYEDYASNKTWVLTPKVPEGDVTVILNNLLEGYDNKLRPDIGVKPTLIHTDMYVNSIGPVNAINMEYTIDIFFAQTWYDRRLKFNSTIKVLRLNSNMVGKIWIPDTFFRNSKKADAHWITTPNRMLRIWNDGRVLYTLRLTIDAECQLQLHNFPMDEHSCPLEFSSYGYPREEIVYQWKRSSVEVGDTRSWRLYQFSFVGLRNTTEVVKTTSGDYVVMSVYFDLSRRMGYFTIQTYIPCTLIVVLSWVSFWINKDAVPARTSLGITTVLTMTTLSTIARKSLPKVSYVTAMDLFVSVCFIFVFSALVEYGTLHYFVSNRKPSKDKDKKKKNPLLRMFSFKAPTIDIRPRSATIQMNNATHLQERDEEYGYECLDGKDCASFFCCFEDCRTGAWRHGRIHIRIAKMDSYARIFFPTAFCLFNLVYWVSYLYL
Chain of Gamma-aminobutyric acid receptor subunit alpha-1/alpha-2/beta-2/gamma-2 (P47869 whole entry): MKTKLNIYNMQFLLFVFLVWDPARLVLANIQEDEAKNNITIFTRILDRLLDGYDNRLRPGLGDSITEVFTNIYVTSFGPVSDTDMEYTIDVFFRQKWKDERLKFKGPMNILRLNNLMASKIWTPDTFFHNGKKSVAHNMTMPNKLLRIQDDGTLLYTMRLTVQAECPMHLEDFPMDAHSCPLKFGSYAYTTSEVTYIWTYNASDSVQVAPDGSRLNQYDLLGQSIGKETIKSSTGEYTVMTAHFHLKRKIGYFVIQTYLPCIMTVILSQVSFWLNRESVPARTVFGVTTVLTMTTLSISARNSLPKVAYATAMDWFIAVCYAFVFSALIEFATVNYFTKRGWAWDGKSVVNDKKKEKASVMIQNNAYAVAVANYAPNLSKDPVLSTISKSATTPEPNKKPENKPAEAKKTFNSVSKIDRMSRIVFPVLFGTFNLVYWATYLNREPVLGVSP

SMILES	AC50 [1] [µM]	AC50 [2] [µM]	AC50 (D(1A) dopamine receptor) [µM]	AC50 [3] [µM]	AC50 (Histamine H3 receptor) [µM]	AC50 [4] [µM]	AC50 [5] [µM]	AC50 [6] [µM]
N[C@@H](Cc1ccc(N(CCCl)CCCl)cc1)C(=O)O	> 30	11.2	> 30	> 30	> 30	–	–	–
CC(=O)OC1CN2CCC1CC2 (stereo not drawn) [ACECLIDINE]	–	> 30	> 30	–	> 30	> 30	–	–
Cc1cnc(C(=O)O)c[n+]1[O-] [ACIPIMOX]	> 30	> 30	> 30	> 30	> 30	–	> 30	> 30
CC1=C(/C=C/C(C)=C\C=C\C(C)=C\C(=O)O)C(C)(C)CCC1 [ALITRETINOIN]	> 30	> 30	> 30	–	> 30	> 30	–	–
N=C(N)NC(=O)c1nc(Cl)c(N)nc1N [AMILORIDE]	> 30	> 30	> 30	–	> 30	> 30	–	–
CC(=O)Nc1ccc(/C=N/NC(N)=S)cc1 [AMITHIOZONE]	–	> 30	> 30	–	> 30	> 30	–	–
Cn1c(CCCC(=O)O)nc2cc(N(CCCl)CCCl)ccc21 [BENDAMUSTINE]	> 30	> 30	> 30	–	> 30	> 30	> 30	> 30
O=C(OOC(=O)c1ccccc1)c1ccccc1 [BENZOYL PEROXIDE]	> 30	> 30	> 30	–	> 30	> 30	> 30	> 30
C[C@H]1C[C@H]2[C@@H]3CCC4=CC(=O)C=C[C@]4(C)[C@@]3(F)[C@@H](O)C[C@]2(C)[C@@]1(O)C(=O)CO [BETAMETHASONE]	> 30	> 30	> 30	> 30	> 30	–	–	–
CC(=O)OCC(=O)[C@@]1(OC(C)=O)[C@@H](C)C[C@H]2[C@@H]3C[C@H](F)C4=CC(=O)C=C[C@]4(C)[C@@]3(F)[C@@H](O)C[C@@]21C [DIFLORASONE DIACETATE]	> 30	> 30	> 30	> 30	> 30	–	–	–
COc1cccc2c1C(=O)c1c(O)c3c(c(O)c1C2=O)C[C@@](O)(C(=O)CO)C[C@@H]3O[C@H]1C[C@H](N)[C@H](O)[C@H](C)O1 [DOXORUBICIN]	> 30	> 30	> 30	–	> 30	> 30	–	–
COc1cccc2c1C(=O)c1c(O)c3c(c(O)c1C2=O)C[C@@](O)(C(=O)CO)C[C@@H]3O[C@H]1C[C@H](N)[C@@H](O)[C@H](C)O1 [EPIRUBICIN]	8.86	> 30	> 30	–	> 30	> 30	–	–
CC(C)Cc1ccc(C(C)C(=O)OCc2ccccn2)cc1 (stereo not drawn) [IBUPROFEN PICONOL]	> 30	> 30	> 30	–	> 30	> 30	> 30	> 10
CC1=C(/C=C/C(C)=C/C=C/C(C)=C\C(=O)O)C(C)(C)CCC1 [ISOTRETINOIN]	> 30	> 30	> 30	–	> 30	> 30	–	–
CC(C)NC[C@H](O)COc1ccc(CCOCC2CC2)cc1 [LEVOBETAXOLOL]	> 30	> 30	> 30	–	> 30	> 30	> 30	> 30
Cc1cccc(C)c1NC(=O)CN(CC(=O)O)CC(=O)O [LIDOFENIN]	> 30	> 30	> 30	–	> 30	> 30	> 30	> 30

SMILES	AC50 [1] [µM]	AC50 [2] [µM]	AC50 (D(1A) dopamine receptor) [µM]	AC50 [3] [µM]	AC50 (Histamine H3 receptor) [µM]	AC50 [4] [µM]	AC50 [5] [µM]	AC50 [6] [µM]
CN1CCc2c(c3ccccc3n2Cc2ccccc2)C1 [MEBHYDROLIN]	> 30	0.533	1.98	–	> 30	25.4	> 30	1.96
Cc1ccc(Cl)c(Nc2ccccc2C(=O)O)c1Cl [MECLOFENAMIC ACID]	> 30	> 30	> 30	> 3	> 30	–	–	–
CC(C)=CCC/C(C)=C/CC/C(C)=C/CC/C(C)=C/CC1=C(C)C(=O)c2ccccc2C1=O [MENATETRENONE]	> 30	> 10	> 30	–	> 30	> 30	> 30	> 30
CSCC[C@H](N)C(=O)O [METHIONINE]	–	> 30	> 30	–	> 30	> 30	–	–
CC(=O)OCC(=O)[C@@]1(O)CC[C@H]2[C@@H]3C[C@H](C)C4=CC(=O)C=C[C@]4(C)[C@H]3[C@@H](O)C[C@@]21C [METHYLPREDNISOLONE ACETATE]	> 30	> 30	> 30	–	> 30	> 30	> 30	> 30
C#C[C@]1(OC(C)=O)CC[C@H]2[C@@H]3CCC4=CC(=O)CC[C@@H]4[C@H]3CC[C@@]21C [NORETHINDRONE ACETATE]	> 30	> 30	> 30	> 10	> 30	–	–	–
O=C1Nc2ccccc2C1(c1ccc(O)cc1)c1ccc(O)cc1 [OXYPHENISATINE]	> 30	> 30	> 30	–	> 30	> 30	> 30	> 30
CNC(=O)c1cnn(-c2nc(N)c3ncn([C@@H]4O[C@H](CO)[C@@H](O)[C@H]4O)c3n2)c1 [REGADENOSON ANHYDROUS]	28.2	> 30	> 30	–	> 30	> 30	> 30	> 30
C[C@@H]1CN(c2c(F)c(N)c3c(=O)c(C(=O)O)cn(C4CC4)c3c2F)C[C@H](C)N1 [SPARFLOXACIN]	> 30	> 30	> 30	> 30	> 30	–	–	–
CC1(C)CCC(C)(C)c2cc(NC(=O)c3ccc(C(=O)O)cc3)ccc21 [TAMIBAROTENE]	> 30	> 30	> 30	–	> 30	> 30	> 30	> 10
CC(C)N1CCN(c2ccc(OCC3COC(Cn4cncn4)(c4ccc(Cl)cc4Cl)O3)cc2)CC1 (stereo not drawn) [TERCONAZOLE]	> 30	2	25.2	> 30	0.096	–	–	–
CCOC1O[C@H]([C@@H](COCc2ccccc2)OCc2ccccc2)[C@H](OCc2ccccc2)[C@H]1O (stereo partly drawn) [TRIBENOSIDE]	> 30	> 30	> 30	–	> 30	> 30	> 30	8.21
NS(=O)(=O)c1cc2c(cc1Cl)NC(C(Cl)Cl)NS2(=O)=O (stereo not drawn) [TRICHLORMETHIAZIDE]	> 30	> 30	> 30	> 30	> 30	–	–	–
CC(CN(C)C)CN1c2ccccc2CCc2ccccc21 (stereo not drawn) [TRIMIPRAMINE]	–	1.27	–	> 30	> 30	–	–	–
N[C@@H](Cc1ccc(O)cc1)C(=O)O [TYROSINE]	> 30	> 30	> 30	–	> 30	> 30	> 30	> 30

Reference: ChEMBL document CHEMBL5291721, “A preclinical secondary pharmacology resource illuminates target-adverse drug reaction associations of marketed drugs” (Nat Commun, 2023)
